Read-outs that look alike come from different tables or passages of the source.
Tests used:
Assay in all cases: Kinase profile (33P ATP filter binding)
Format in all cases: biochemical
Src = Src (Homo sapiens, UniProt P12931); conditions: read-out: Remaining protein kinase activity
ROCK 2 = ROCK 2 (Homo sapiens, UniProt O75116); conditions: read-out: Remaining protein kinase activity
CAMK1 = CAMK1 (Homo sapiens, UniProt Q14012); conditions: read-out: Remaining protein kinase activity
Aurora B = Aurora B (Homo sapiens, UniProt Q96GD4); conditions: read-out: Remaining protein kinase activity
Sequence of Aurora B (Q96GD4 whole entry): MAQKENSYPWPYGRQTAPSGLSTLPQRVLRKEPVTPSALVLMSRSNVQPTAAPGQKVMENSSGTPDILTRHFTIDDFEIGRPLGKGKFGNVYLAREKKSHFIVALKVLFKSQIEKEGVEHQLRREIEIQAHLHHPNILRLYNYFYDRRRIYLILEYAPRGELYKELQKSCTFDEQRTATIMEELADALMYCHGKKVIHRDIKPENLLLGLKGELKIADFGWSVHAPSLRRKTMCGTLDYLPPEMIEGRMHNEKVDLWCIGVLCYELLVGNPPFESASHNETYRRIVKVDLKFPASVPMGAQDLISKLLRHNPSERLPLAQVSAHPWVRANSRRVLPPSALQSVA

SmMLCK = SmMLCK (Homo sapiens, UniProt Q15746); conditions: read-out: Remaining protein kinase activity
Sequence of SmMLCK (Q15746 923-1914): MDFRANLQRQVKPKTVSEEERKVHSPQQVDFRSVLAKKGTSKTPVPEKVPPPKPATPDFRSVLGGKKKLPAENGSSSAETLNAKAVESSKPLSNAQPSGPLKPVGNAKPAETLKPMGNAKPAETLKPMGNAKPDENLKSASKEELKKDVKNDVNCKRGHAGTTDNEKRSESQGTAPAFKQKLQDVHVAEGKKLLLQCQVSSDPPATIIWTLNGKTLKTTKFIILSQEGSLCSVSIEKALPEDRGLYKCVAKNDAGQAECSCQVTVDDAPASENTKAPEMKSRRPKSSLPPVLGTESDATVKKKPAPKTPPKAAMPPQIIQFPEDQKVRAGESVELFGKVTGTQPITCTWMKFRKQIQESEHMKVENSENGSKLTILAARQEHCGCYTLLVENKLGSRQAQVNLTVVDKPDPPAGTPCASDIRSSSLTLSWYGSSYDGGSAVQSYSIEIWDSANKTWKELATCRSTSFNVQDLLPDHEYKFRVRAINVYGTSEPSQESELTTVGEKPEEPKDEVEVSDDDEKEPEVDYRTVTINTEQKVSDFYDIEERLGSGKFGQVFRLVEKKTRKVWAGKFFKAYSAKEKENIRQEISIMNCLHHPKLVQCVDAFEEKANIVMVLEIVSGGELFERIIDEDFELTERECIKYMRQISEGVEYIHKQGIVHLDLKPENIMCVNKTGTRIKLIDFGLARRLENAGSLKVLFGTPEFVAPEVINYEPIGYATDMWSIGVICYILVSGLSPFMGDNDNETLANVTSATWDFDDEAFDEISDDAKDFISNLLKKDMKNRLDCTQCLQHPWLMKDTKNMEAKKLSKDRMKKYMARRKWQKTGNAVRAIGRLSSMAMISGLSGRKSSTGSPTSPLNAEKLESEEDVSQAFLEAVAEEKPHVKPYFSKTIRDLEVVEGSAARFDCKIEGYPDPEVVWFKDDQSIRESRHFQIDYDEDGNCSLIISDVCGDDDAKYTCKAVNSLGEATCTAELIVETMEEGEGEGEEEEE

HIPK2 = HIPK2 (Homo sapiens, UniProt Q9H2X6); conditions: read-out: Remaining protein kinase activity
MNK2 = MNK2 (Homo sapiens, UniProt Q9HBH9); conditions: read-out: Remaining protein kinase activity
Sequence of MNK2 (Q9HBH9 whole entry): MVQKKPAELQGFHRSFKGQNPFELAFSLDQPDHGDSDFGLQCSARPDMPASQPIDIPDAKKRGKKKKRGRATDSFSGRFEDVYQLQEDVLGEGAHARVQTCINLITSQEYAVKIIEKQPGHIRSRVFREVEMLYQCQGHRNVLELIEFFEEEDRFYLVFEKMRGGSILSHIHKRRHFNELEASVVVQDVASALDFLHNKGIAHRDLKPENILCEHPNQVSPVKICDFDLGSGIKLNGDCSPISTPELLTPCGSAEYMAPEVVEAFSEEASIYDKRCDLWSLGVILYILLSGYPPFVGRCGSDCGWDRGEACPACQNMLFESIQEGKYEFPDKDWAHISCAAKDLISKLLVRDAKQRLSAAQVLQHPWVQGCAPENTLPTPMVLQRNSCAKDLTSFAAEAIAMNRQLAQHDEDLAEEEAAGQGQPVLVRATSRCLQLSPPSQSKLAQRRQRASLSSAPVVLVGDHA

p38a MAPK = p38a MAPK (Homo sapiens, UniProt Q16539)
Sequence of p38a MAPK (Q16539 whole entry): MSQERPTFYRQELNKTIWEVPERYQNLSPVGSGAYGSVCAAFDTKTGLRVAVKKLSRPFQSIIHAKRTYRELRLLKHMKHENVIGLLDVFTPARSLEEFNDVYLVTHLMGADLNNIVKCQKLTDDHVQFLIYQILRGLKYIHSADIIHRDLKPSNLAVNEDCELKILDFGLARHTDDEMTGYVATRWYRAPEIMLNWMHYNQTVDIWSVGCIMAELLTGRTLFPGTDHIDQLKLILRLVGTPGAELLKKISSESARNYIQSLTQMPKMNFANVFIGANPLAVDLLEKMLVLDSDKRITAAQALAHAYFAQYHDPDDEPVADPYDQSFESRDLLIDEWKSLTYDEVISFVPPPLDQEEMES

ABL = ABL (Homo sapiens, UniProt P00519); conditions: read-out: Remaining protein kinase activity
Sequence of ABL (P00519 whole entry): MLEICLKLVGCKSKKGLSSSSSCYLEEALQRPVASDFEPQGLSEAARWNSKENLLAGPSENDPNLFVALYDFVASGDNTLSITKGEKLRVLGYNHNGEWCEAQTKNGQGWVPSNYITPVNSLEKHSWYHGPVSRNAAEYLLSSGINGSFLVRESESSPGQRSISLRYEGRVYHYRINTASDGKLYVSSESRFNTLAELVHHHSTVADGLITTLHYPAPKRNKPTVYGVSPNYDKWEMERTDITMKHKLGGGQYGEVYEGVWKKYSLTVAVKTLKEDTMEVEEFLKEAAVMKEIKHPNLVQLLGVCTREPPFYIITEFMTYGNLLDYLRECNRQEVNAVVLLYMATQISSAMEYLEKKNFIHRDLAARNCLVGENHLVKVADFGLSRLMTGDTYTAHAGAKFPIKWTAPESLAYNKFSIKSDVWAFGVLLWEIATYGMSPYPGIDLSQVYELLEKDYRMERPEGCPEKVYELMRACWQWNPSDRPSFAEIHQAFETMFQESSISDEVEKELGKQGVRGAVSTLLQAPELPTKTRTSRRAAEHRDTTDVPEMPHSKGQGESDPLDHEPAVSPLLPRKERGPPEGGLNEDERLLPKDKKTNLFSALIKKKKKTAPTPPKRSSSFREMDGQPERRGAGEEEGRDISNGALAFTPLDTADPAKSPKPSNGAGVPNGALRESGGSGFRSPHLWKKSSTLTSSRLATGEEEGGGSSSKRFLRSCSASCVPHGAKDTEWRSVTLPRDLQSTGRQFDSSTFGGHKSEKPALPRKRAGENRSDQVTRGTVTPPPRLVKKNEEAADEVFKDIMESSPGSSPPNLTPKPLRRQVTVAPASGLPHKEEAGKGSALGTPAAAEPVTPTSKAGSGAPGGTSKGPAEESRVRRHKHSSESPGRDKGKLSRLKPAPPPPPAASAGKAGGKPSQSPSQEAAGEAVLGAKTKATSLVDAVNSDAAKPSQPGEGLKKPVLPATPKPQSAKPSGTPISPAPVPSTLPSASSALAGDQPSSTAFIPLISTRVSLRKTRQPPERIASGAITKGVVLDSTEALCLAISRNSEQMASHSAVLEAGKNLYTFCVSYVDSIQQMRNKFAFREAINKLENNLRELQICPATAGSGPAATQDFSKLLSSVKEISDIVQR

PRAK = target: T1, PRAK (Homo sapiens, UniProt Q8IW41); conditions: read-out: Remaining protein kinase activity
T1 sequence (Q8IW41 1-473): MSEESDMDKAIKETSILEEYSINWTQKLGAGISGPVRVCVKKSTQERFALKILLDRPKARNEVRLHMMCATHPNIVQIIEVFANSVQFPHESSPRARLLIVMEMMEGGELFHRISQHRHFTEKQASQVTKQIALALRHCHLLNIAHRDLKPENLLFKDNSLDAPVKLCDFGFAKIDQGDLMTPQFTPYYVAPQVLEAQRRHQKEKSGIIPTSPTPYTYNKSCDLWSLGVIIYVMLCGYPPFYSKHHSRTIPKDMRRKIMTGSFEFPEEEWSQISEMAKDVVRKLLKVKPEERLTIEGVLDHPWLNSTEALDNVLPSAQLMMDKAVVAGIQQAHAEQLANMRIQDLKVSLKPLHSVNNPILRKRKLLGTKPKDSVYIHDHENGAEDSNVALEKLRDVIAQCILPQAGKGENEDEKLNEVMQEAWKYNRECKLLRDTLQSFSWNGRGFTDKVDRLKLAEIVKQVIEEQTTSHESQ

ASK1 = target: T2, ASK1 (Homo sapiens, UniProt Q99683); conditions: read-out: Remaining protein kinase activity
T2 sequence (Q99683 1-1374): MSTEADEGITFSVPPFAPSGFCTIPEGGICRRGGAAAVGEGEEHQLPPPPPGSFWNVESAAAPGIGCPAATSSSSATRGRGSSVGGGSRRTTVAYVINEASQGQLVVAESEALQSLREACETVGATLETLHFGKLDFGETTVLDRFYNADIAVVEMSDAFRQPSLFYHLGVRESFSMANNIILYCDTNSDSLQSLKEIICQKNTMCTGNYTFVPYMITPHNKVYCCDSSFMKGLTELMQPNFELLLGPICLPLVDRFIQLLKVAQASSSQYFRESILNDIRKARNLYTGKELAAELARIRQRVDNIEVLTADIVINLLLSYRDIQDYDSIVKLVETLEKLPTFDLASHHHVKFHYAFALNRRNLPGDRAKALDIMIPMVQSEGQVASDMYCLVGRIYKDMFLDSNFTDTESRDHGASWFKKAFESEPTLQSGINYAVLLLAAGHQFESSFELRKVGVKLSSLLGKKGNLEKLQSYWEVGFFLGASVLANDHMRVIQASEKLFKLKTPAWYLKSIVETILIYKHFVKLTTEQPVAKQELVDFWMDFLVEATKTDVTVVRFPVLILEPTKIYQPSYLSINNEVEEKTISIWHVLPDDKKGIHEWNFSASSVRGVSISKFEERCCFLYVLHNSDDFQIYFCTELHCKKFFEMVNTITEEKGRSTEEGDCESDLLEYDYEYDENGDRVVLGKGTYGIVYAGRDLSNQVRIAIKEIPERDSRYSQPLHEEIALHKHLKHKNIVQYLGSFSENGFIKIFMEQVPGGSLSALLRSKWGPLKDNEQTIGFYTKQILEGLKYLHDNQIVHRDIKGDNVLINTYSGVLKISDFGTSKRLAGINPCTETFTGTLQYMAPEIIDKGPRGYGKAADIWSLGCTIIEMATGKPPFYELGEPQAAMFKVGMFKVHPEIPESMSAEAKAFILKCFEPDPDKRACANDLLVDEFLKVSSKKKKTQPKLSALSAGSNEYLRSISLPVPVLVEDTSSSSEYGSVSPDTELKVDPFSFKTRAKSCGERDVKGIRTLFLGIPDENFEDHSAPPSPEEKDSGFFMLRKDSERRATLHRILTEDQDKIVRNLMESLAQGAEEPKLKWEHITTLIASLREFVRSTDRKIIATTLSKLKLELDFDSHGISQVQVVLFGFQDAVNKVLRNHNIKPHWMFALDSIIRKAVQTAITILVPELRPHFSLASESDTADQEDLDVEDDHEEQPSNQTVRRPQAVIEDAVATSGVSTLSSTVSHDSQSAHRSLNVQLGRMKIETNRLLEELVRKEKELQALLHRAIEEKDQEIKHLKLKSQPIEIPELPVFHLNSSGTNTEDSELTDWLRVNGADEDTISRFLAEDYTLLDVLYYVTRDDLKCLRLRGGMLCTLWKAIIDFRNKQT

Sequence of CAMK1 (Q14012 whole entry): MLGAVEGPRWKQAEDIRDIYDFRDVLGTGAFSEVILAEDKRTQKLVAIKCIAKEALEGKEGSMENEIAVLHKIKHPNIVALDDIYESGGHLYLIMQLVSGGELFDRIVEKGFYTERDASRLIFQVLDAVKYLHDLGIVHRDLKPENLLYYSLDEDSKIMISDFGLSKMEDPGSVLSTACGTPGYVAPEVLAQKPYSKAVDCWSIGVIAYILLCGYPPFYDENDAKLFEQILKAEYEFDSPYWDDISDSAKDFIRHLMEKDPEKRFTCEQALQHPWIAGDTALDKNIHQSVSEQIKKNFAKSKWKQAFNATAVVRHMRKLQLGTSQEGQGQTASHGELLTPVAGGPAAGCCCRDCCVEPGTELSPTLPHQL
Sequence of ROCK 2 (O75116 whole entry, species assumed): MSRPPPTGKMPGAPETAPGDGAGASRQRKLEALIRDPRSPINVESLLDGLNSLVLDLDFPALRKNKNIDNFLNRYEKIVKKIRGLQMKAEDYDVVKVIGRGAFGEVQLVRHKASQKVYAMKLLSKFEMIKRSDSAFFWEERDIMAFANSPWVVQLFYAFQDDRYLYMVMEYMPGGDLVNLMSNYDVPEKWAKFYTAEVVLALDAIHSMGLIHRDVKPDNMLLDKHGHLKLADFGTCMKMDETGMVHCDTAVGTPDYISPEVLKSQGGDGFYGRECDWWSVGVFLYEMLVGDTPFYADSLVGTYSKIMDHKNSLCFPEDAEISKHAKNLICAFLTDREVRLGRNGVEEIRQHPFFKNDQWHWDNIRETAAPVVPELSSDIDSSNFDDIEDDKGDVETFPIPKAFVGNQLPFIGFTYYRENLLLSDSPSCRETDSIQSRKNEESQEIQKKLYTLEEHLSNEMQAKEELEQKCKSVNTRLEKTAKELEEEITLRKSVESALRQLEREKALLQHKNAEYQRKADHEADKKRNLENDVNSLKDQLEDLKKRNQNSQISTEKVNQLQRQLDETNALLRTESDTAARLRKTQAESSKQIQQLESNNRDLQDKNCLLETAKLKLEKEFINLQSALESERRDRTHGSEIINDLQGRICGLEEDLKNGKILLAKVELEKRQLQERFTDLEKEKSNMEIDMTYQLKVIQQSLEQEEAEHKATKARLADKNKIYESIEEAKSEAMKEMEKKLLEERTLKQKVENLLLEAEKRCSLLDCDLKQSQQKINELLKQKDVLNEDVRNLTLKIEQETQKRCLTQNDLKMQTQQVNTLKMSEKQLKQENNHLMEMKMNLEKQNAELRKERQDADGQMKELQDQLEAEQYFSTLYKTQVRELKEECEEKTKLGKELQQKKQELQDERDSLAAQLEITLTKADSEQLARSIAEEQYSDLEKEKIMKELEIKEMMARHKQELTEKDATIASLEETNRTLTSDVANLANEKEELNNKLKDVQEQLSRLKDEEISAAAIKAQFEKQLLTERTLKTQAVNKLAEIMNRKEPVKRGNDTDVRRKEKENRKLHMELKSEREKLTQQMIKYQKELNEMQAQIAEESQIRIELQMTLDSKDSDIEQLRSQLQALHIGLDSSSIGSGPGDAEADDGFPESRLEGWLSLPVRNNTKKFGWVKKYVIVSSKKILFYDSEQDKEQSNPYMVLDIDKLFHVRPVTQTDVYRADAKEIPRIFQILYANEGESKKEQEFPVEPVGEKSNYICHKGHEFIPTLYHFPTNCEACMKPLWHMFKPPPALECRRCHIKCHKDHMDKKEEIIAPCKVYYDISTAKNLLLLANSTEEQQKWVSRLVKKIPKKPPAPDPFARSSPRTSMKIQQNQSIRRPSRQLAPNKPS

SMILES: COc1ccc2sc(-c3cncc(NC(C)=O)c3)nc2c1 [PST-001, N-(5-(5-Methoxybenzo[d]thiazol-2-yl)pyridin-3-yl)acetamide]
- remaining activity at 1 µM (Src): 100%
- remaining activity at 100 µM (Src): 106%
- remaining activity at 1 µM (ROCK 2): 110%
- remaining activity at 100 µM (ROCK 2): 64%
- remaining activity at 100 µM (CAMK1): 100%
- remaining activity at 1 µM (Aurora B): 106%
- remaining activity at 100 µM (Aurora B): 24%
- remaining activity at 1 µM (SmMLCK): 118%
- remaining activity at 100 µM (SmMLCK): 99%
- remaining activity at 1 µM (HIPK2): 90%
- remaining activity at 100 µM (HIPK2): 77%
- remaining activity at 1 µM (MNK2): 106%
- remaining activity at 100 µM (MNK2): 66%
- Remaining protein kinase activity (p38a MAPK; 1 μM): 110%
- Remaining protein kinase activity (p38a MAPK; 100 μM): 106%
- remaining activity at 1 µM (ABL): 97%
- remaining activity at 100 µM (ABL): 99%
- remaining activity at 1 µM (PRAK): 114%
- remaining activity at 100 µM (PRAK): 116%
- remaining activity at 1 µM (ASK1): 114%
- remaining activity at 100 µM (ASK1): 131%

SMILES: COc1ccc2sc(-c3cncc(N)c3)nc2c1 [compound 1, 5-(5-Methoxybenzo[d]thiazol-2-yl)pyridin-3-amine]
- remaining activity at 1 µM (Src; Src, 1 μM): 123%
- remaining activity at 100 µM (Src; Src, 100 μM): 42%
- remaining activity at 1 µM (ROCK 2; ROCK 2, 1 μM): 108%
- remaining activity at 100 µM (ROCK 2; ROCK 2, 100 μM): 5%
- remaining activity at 1 µM (CAMK1; CAMK1, 1 μM): 99%
- remaining activity at 100 µM (CAMK1; CAMK1, 100 μM): 52%
- remaining activity at 1 µM (Aurora B; Aurora B, 1 μM): 107%
- remaining activity at 100 µM (Aurora B; Aurora B, 100 μM): 21%
- remaining activity at 1 µM (SmMLCK): 98%
- remaining activity at 100 µM (SmMLCK): 41%
- remaining activity at 1 µM (HIPK2; HIPK2, 1 μM): 79%
- remaining activity at 100 µM (HIPK2; HIPK2, 100 μM): 10%
- remaining activity at 1 µM (MNK2; MNK2, 1 μM): 90%
- remaining activity at 100 µM (MNK2; MNK2, 100 μM): 27%
- Remaining protein kinase activity (p38a MAPK; 1 μM): 103%
- Remaining protein kinase activity (p38a MAPK; 100 μM): 96%
- remaining activity at 1 µM (ABL; ABL, 1 μM): 108%
- remaining activity at 100 µM (ABL; ABL, 100 μM): 46%
- remaining activity at 1 µM (PRAK; PRAK, 1 μM): 128%
- remaining activity at 100 µM (PRAK; PRAK, 100 μM): 36%
- remaining activity at 1 µM (ASK1; ASK1, 1 μM): 116%
- remaining activity at 100 µM (ASK1; ASK1, 100 μM): 150%

Reference: publication PMC8617627, “Novel DYRK1A Inhibitor Rescues Learning and Memory Deficits in a Mouse Model of Down Syndrome” (Pharmaceuticals, 2021)
